Test results: PubChem BioAssay AID179 (DTP/NCI, 2004)
The source made the active and inactive calls.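 How the source made its calls: active means compounds giving half or more protection of infected cells from virus-caused growth loss, again on retest; inactive means the rest.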

Test system: CEM cells HIV-1 protection, formazan growth assay
Experiment: NCI AIDS Antiviral Assay
Settings: for IC50: measured here: growth of uninfected CEM cells
Procedure, shortened: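 CEM (human) cells, HIV-1 infected vs uninfected, 5-point dosing, formazan growth read-out. Retest threshold 50% protection.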

SMILES	EC50 [µM]	IC50 [µM]	outcome
CCCCC(C(=O)C(=O)Nc1ccc(C)cc1C)C(=O)C(C)C (stereo not drawn)	> 794	> 794	–
N#CC(=Nc1ccccc1N(C(=O)c1ccccc1)C(=O)c1ccccc1)c1ccccc1	> 17	> 17	–
Cn1c2c(c3ccccc31)CCN=C2C1CCCOC1=O (stereo not drawn)	> 200	> 200	–
CN(C)Cc1cc(N=Nc2ccccc2)cc(CN(C)C)c1O	> 200	102	–
OCCN1c2ccccc2Sc2ccc(Cl)cc21	> 200	61.7	–
CCCCCCCCCCCCCC/C(C(=O)OC)=C(/O)C(=O)OCC	> 91.2	28.8	–
CCCCc1ccc(N=C(N)N)cc1	> 200	28.8	–
O=C(c1cc2c(C(F)(F)F)onc2c2ccccc12)C(F)(F)F	> 107	8.32	–
CCOC(=O)/C=C\c1c(Cl)n(-c2ccccc2)c(=O)n(-c2ccccc2)c1=O	> 200	31.6	–
CC1=CCC(C)=Nc2nc3ccccc3n21	> 200	> 200	–
CC(=O)OC1C=CC(SC23CC4CC(CC(C4)C2)C3)N(C(C)=O)C1SC12CC3CC(CC(C3)C1)C2 (stereo not drawn)	> 200	> 200	–
COC(=O)[C@H]1C2CC[C@@H]3C45C[C@@H](c6ccoc6)O[C@@H]4O[C@@H](O2)C31CCC5C (stereo partly drawn)	> 95.5	> 95.5	–
CNP1(NC)=NP(NC)(NC)=NP(NC)(NC)=NP(NC)(NC)=N1	> 3.47	> 3.47	–
O=CC[C@@]12CC(=O)OC(C1)[C@@H](I)CC21OCCO1	> 200	> 200	–
CC1CNC(=S)SSC(=S)N1 (stereo not drawn)	> 200	25.1	–
O=C(N/C(=C\c1ccc(/C=C(\NC(=O)c2ccccc2)c2nc3ccccc3[nH]2)cc1)c1nc2ccccc2[nH]1)c1ccccc1	–	–	inactive
COC(=O)C1Cc2c(OC)ccc(OC)c2CC(C(=O)OC)C1=O (stereo not drawn)	> 200	182	–
CN(C)CC(=O)N1CCc2c([nH]c3ccccc23)C1c1cccnc1 (stereo not drawn)	> 107	> 107	–
CC1=C(C)CS(=O)(=O)N(c2ccccc2)C1	> 200	> 200	–
Cc1ccc(-n2c(CSc3ccc(Cl)cc3)nnc2SCc2nc3ccccc3[nH]2)cc1	> 200	120	–
O=c1ssc(Cl)c1Cl	> 200	33.9	–
N#CC(c1ccccc1)N(CCc1ccccc1)C(=O)Oc1ccccc1 (stereo not drawn)	> 200	> 200	–

SMILES	EC50 [µM]	IC50 [µM]	outcome
O=C(Cn1ccnc1[N+](=O)[O-])NCc1ccc(F)cc1	> 178	> 178	–
Cc1cc(C)c2c(c1)CSCc1cc(C)cc(C)c1-2	–	–	inactive
CCCCSC(=CC(=O)c1cccc(C(=O)C=C(SCCCC)SCCCC)n1)SCCCC	> 3.72	> 3.72	–
Cc1cc(N(CCC#N)CCC#N)ccc1/C=C(\NC(=O)/C=C/c1ccccc1)C(=O)Nc1ccc(Cl)cc1	> 13.5	> 13.5	–
COC(=O)NC1=Nc2ccccc2-c2ccccc2N1	> 200	123	–
O=C(O)c1nn(-c2ccccn2)c(O)c1N=Nc1ccc(/C=C/c2ccc(N=Nc3c(C(=O)O)nn(-c4ccccn4)c3O)cc2S(=O)(=O)O)c(S(=O)(=O)O)c1	> 20.4	> 20.4	–
C=CCn1c2c(sc1=S)C(S)N=CN2 (stereo not drawn)	> 107	42.7	–
CC(=O)c1ccc(C(=O)c2ccccc2C(=O)O)cc1	> 200	> 200	–
O=C(/C=C\c1ccccc1)Oc1ccc(/C=C2\CCC/C(=C\c3ccc(OC(=O)/C=C\c4ccccc4)cc3)C2=O)cc1	> 100	> 100	–
CCCOc1nc(N)c2cnn(C3CCCCO3)c2n1 (stereo not drawn)	> 912	550	–
CCCCc1c2c(nc3c1CCc1cc4cc5c(nc4nc1-3)-c1nc3c(c(CCCC)c1CC5)CCCC3)CCCC2	> 0.977	> 0.977	–
COCOC1C(=O)N(c2ccccc2)[C@@H]1c1ccccc1 (stereo partly drawn)	> 91.2	> 91.2	–
COc1ccc(-c2sc(N)c(C#N)c2C)cc1OC	–	–	inactive
CO[C@H](/C(C)=C/C=C/C(C)=C/c1coc(C)n1)[C@H](C)[C@H]1C[C@@H](O)[C@@]2(C)O[C@H]2/C=C/[C@@H](C)[C@@H]2C[C@@H](CC(=O)O2)C[C@H]2O[C@@H]2C(=O)O1	> 0.219	0.00017	–
CCC([NH-])C(=O)O.CCC([NH-])C(=O)O.[Cu+2] (stereo not drawn)	> 200	18.2	–
CC(=S)N/C=C(\C#N)c1nc2ccccc2s1	> 200	107	–
CCOC(=O)C1(C(=O)OCC)C[C@H](C)[C@](C)(O)C1	> 200	> 200	–
COc1cc2ccc(CC(N)=O)cc2cc1OC	–	–	inactive
O=C1Nc2ccccc2Nc2nc3cccccc-3c21	> 100	> 100	–
CN1C=c2c3c(ccc2=C2C=CC4C=C5OCOC5=CC4=C21)OCO3 (stereo not drawn)	> 20	0.759	–
CCC[CH2][Sn]1([CH2]CCC)[O]CC(CN2CCCCC2)[O]1 (stereo not drawn)	> 9.33	0.0646	–
Cn1c(=O)oc2cc(C(=S)N3CCCCC3)ccc21	> 200	> 200	–

SMILES	EC50 [µM]	IC50 [µM]	outcome
CS(=O)(=O)OCCN1CCC2(CC1)SSC1(CCN(CCOS(C)(=O)=O)CC1)S2	> 200	28.2	–
CC(Oc1ccc(OCC2CCCCC2)cc1)C(N)=O (stereo not drawn)	> 36.3	15.1	–
COc1ccc(C2c3cc4c(cc3OC(N3CCOCC3)C2C)OCO4)c(OC)c1 (stereo not drawn)	> 200	3.31	–
CC1(C)OC2OC(C(O)COC(=O)c3ccccc3)C(F)C2O1 (stereo not drawn)	> 209	> 209	–
CC1=C/C(=N\OCC(=O)O)CC(c2ccc(C(C)C)cc2)C1 (stereo not drawn)	> 200	97.7	–
Cc1c(Cl)cccc1NC(=O)C(=O)C(C(=O)c1ccccc1-c1ccccc1)C1OC(=O)c2ccccc21 (stereo not drawn)	> 69.2	26.3	–
O=[N+]([O-])c1ccccc1S(=O)(=O)c1ccccc1[N+](=O)[O-]	1.26	145	–
CC(=O)c1sc2c(c1OC(=O)c1ccc(Cl)cc1)c(=O)n(-c1ccccc1)c(=S)n2-c1ccccc1	> 200	0.776	–
O=c1c(O)c(O)c1=O.[NH2-].[NH2-].[NH2-].[NH2-].[NH2-].[Ru+5]	> 21.4	> 21.4	–
COc1ccc(Cl)cc1NC(=O)O/N=C(\Cl)C(C)C	> 20	2.51	–
COC(=O)C1=C(CO)C2C=CC1C2 (stereo not drawn)	–	–	inactive
CCOC(=O)c1c(-c2ccccc2)oc(=O)c(Cc2cccc3cccnc23)c1-c1ccccc1	> 200	> 200	–
COc1nc2c(c(=O)n1C)N[C@@H]1[C@@H](O)[C@H](O)CO[C@@H]1N2	> 200	> 200	–
CN1CCc2c([nH]c3ccccc23)C1	> 200	> 200	–
CC(=O)[C@@]1(c2ccccc2)N(C(=O)c2ccccc2)[C@@]1(C)C(=O)c1ccccc1	> 646	562	–
Cc1nn2c(nnn2CCO)c1-c1ccccc1	> 1020	407	–
COc1ccc(N=NC(=O)NC(CC(C)C)C(=O)NC(Cc2ccccc2)C(=O)O)cc1 (stereo not drawn)	> 200	3.09	–
O=[N+]([O-])c1cccc2nc3ccccc3c(NCCNCCO)c12	> 2	0.0316	–
c1ccc2c(c1)Nc1nc3ccccc3nc1N2	> 100	> 100	–
Cc1ccccc1N1CC2CC3C=CC2(C1)O3 (stereo not drawn)	> 200	> 200	–
